Earlier results in patent US20230012071A1, “MODIFIED RELEASE PHARMACEUTICAL COMPOSITIONS OF RIOCIGUAT” (ZYDUS LIFESCIENCES LIMITED, priority 2019, published 2023).

Conditions: existing marketed immediate release tablet

absolute bioavailability: about 94%
time at which peak plasma concentrations are observed following drug administration: ≤ 1.5 h
SMILES: COC(=O)N(C)c1c(N)nc(-c2nn(Cc3ccccc3F)c3ncccc23)nc1N
